Measurements published in ChEMBL document CHEMBL5053537, “Next generation Glucose-1-phosphate thymidylyltransferase (RmlA) inhibitors: An extended SAR study to direct future design” (Bioorg Med Chem, 2021).
≈ marks a conversion by molar mass, not a printed value.

How the values were obtained:
Pseudomonas aeruginosa = test: Inhibition of N-terminal His-tagged Pseudomonas aeruginosa RmIA expressed in Escherichia coli BL21 (lambdaDE3) at 10 uM using dTTP and G-1-P as substrates incubated for 30 mins by Biomol green reagent based assay relative to control
[1] = Inhibition of N-terminal His-tagged Pseudomonas aeruginosa RmIA expressed in Escherichia coli BL21 (lambdaDE3) using dTTP and G-1-P as substrates incubated for 30 mins by Biomol green reagent based assay
[2] = system: Mycobacterium tuberculosis; test: Antimycobacterial activity against Mycobacterium tuberculosis assessed as inhibition of bacterial growth; format: functional; conditions: read-out: MIC100

| Compound | inhibition (Pseudomonas aeruginosa) [%] | also measured |
| --- | --- | --- |
| CNCCCNc1c(N(C)S(=O)(=O)c2ccccc2)c(=O)[nH]c(=O)n1Cc1ccc(Br)cc1 | 100 |  |
| CNCCNc1c(N(C)S(=O)(=O)c2ccccc2)c(=O)[nH]c(=O)n1Cc1ccc(Br)cc1 |  | IC50 [1]: 96 nM |
| CN(c1c(N)n(Cc2ccccc2)c(=O)[nH]c1=O)S(=O)(=O)c1ccccc1 |  | MIC [2]: 100 µg/mL (≈ 259 µM) |
| CN(c1c(NCCCn2cc(CN)nn2)n(Cc2ccccc2)c(=O)[nH]c1=O)S(=O)(=O)c1ccccc1 | 100 |  |
| CN(c1c(NCCCCN)n(Cc2ccc(Br)cc2)c(=O)[nH]c1=O)S(=O)(=O)c1ccccc1 | 100 |  |
| CN(c1c(N)n(Cc2ccc(Br)cc2)c(=O)[nH]c1=O)S(=O)(=O)c1ccccc1 | 100 |  |
| CN(c1c(NCCCCCN)n(Cc2ccc(Br)cc2)c(=O)[nH]c1=O)S(=O)(=O)c1ccccc1 | 100 |  |
